Measurements reported in patent US7786152B2, “Compound” (priority 2002, dated 2010).

These compounds were tested against T1, 11 β-HSD type 2 (Rattus norvegicus, UniProt P50233) (assay: 11 β-HSD type 2 inhibition, rat kidney homogenate, conversion F to E (radiometric TLC)). Settings: read-out: % inhibition of 11β HSD2 @ 10 μM, typical sd ± 5%, means n=2.
T1 construct: Both the kidneys and livers were homogenised on ice in PBS-sucrose buffer; tissue Harlan Olac (rats); host or cells: Wistar rat kidney homogenate supernatant
T1 sequence (P50233 1-400): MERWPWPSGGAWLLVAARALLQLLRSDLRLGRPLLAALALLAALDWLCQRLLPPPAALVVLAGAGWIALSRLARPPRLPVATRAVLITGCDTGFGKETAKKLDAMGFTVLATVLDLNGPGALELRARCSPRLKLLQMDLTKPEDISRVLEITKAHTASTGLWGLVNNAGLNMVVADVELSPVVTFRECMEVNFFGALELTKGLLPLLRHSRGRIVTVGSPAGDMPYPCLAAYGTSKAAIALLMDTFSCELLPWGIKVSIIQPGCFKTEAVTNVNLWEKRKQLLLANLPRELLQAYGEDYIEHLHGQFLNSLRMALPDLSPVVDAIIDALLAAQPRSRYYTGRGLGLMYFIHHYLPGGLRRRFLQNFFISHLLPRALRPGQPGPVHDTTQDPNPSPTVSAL
Format: biochemical
Procedure: Enzymes—Rat livers and rat kidneys were obtained from normal Wistar rats (Harlan Olac, Bicester, Oxon, UK). Both the kidneys and livers were homogenised on ice in PBS-sucrose buffer (1 g/10 ml) using an Ultra-Turrax. After the livers and kidneys were homogenised the homogenate was centrifuged for five minutes at 4000 rpm. The supernatant obtained was removed and stored in glass vials at −20° C. The amount of protein per μl of rat liver and kidney cytosol was determined using the Bradford method.
The same procedure was used for the 11 β-HSD type 2 assay, the conversion F to E, to determine the amount of rat kidney to be used and the incubation time. Except this time the substrate solution contained ^3H—F and unlabelled F and the recovery contained ^14C-E and unlabelled E and cortisone has a Rf value of 0.65 on the TLC-plate.
In these assays the influence of different inhibitors on the 11 β-HSD activity both in reductive (type 1) and oxidative (type 2) directions were assessed. In the reductive direction E is the substrate and F the product and visa versa in the case of oxidation. The method described here is for the oxidative direction.
The substrate solution contained about 50,000 cpm/ml ^3H—F in PBS-sucrose and 0.5 μM F. 1 ml of the substrate solution was added to each tube, the inhibitors were also added, at a 10 μM concentration, to each tube except to the “control” and “blank” tubes. 150 μL was added to all tubes except to the blanks, this was done to correct for the amount of ^3H—F spontaneously formed. The tubes were incubated for 60 minutes in a mechanically shaken water bath at 37° C. The amount of kidney liver homogenate and incubation time used resulted from the enzyme- and time-dependency assay. After incubation 50 μL of recovery was added to correct for the losses made in the next steps, containing 5000 cpm/50 μL of ^14C-E and 50 μg/50 μL of unlabelled E (to visualise the spot on the TLC-plate). The aqueous mixture was then extracted with 4 ml of ether (2×30 sec cycle, vortex mix). After freezing the aqueous phase, the ether (upper) layer was decanted into smaller tubes and evaporated at 45° C. until completely dry. The residue was then re-dissolved in 6 drops of ether and transferred to a TLC-plate. The TLC-plate was developed in chloroform:methanol (9:1 v/v) solvent system, the TLC-plate ran for about 90 minutes until the solvent front had moved about 18 cm. The position of the product E was visualised under UV-light and cut out from the TLC-plate and put into scintillation vials. Radioactivity was eluted over 5 minutes with 0.5 ml methanol. 0.5 ml of PBS-sucrose and 10 ml of Ecoscint were then added and vortex mixed before counting in the scintillation counter. Before counting the samples, two total activity vials were prepared. These contained 0.5 ml of the substrate solution, 50 μL of the recovery, 0.5 ml of methanol and 10 ml of Ecoscint. These two total activity vials were needed to determine the amount of ^14C-E and ^3H—F added in the beginning to make the calculations.
To look at the percentage of inhibition four different concentrations, 1, 5, 10 and 20 μM, were used. The method for both the rat liver, type 1 the reductive, and rat kidney, type 2 the oxidative, stay the same throughout the entire experiment.
In this experiment the amount of rat liver homogenate and rat kidney homogenate added to each tube and the incubation time was determined. […] After drawing the graphs the optimal amount of rat liver cytosol and rat kidney cytosol and both their incubation times were selected. One important rule when selecting both variables, to select an amount of rat liver and rat kidney and incubation time on a linear part of the graph. This is done to avoid fluctuations in enzyme activity. The amount of rat liver cytosol selected was 25 μL and 90 minutes of incubation time, the amount of rat kidney cytosol selected was 150 μL and 60 minutes of incubation time. […]

| Compound | inhibition at 10 µM [%] |
| --- | --- |
| CCCc1ccc(S(=O)(=O)Nc2ccc3sc(C)nc3c2)cc1 [compound 421] | 0.9 |
| Cc1nc2cc(NS(=O)(=O)c3ccc(Br)cc3C)ccc2s1 [compound 523] | 8 |
| COc1ccc(Cl)cc1S(=O)(=O)Nc1ccc2sc(C)nc2c1 [compound 582] | 0.7 |
| Cc1nc2cc(NS(=O)(=O)c3ccc(C(C)(C)C)cc3)ccc2s1 [compound 709] | 13 |
| Cc1nc2cc(NS(=O)(=O)c3ccc(Br)cc3)ccc2s1 [compound 519] | 8 |
| COc1cc(C)ccc1S(=O)(=O)Nc1ccc2sc(C)nc2c1 [compound 584] | 10 |
| Cc1nc2cc(NS(=O)(=O)c3cccc(Cl)c3C)ccc2s1 [compound 413] | 0.2 |
| CCSc1nc2ccc(NS(=O)(=O)c3cccc(Cl)c3C)cc2s1 [compound 751] | 5 |
| Cc1nc2cc(NS(=O)(=O)c3c(Cl)cc(Cl)cc3Cl)ccc2s1 [compound 522] | 6 |
| CC(=O)c1ccccc1S(=O)(=O)Nc1ccc2sc(C)nc2c1 [compound 701] | 36 |
| Cc1nc2cc(NS(=O)(=O)c3cccc4c(N(C)C)cccc34)ccc2s1 [compound 554] | 43 |
| Cc1nc2cc(NS(=O)(=O)c3cccc4cccnc34)ccc2s1 [compound 552] | 24 |
| COc1ccc(S(=O)(=O)Nc2ccc3sc(C)nc3c2)cc1 [compound 424] | 0.7 |
| Cc1nc2cc(NS(=O)(=O)c3c(C)cccc3Cl)ccc2s1 [compound 425] | 0 |
| Cc1nc2cc(NS(=O)(=O)c3c(C)c(C)c(C)c(C)c3C)ccc2s1 [compound 710] | 10 |
| Cc1nc2cc(NS(=O)(=O)c3c(C(C)C)cc(C(C)C)cc3C(C)C)ccc2s1 [compound 703] | 4 |
| Cc1nc2cc(NS(=O)(=O)c3ccc(Oc4ccccc4)cc3)ccc2s1 [compound 585] | 1.6 |
| Cc1nc2cc(NS(=O)(=O)c3cccc4ccccc34)ccc2s1 [compound 553] | 18 |
| Cc1nc2cc(NS(=O)(=O)c3ccccc3C#N)ccc2s1 [compound 583] | 0.4 |
| Cc1nc2cc(NS(=O)(=O)c3ccc4c(c3)CN(C(=O)C(F)(F)F)CC4)ccc2s1 [compound 581] | 32 |
| CCN(c1ccc2sc(C)nc2c1)S(=O)(=O)c1cccc(Cl)c1C [compound 470] | 30 |
| COC(=O)c1ccccc1S(=O)(=O)Nc1ccc2sc(C)nc2c1 [compound 705] | 6 |
| Cc1nc2cc(N(C)S(=O)(=O)c3cccc(Cl)c3C)ccc2s1 [compound 469] | 29 |
| COc1c(C)c(C)c(S(=O)(=O)Nc2ccc3sc(C)nc3c2)c(C)c1C [compound 708] | 11 |
| Cc1nc2cc(NS(=O)(=O)c3ccc(C(C)C)cc3)ccc2s1 [compound 704] | 4 |
| Cc1nc2cc(NS(=O)(=O)c3ccc(-c4ccccc4)cc3)ccc2s1 [compound 521] | 5 |
| Cc1nc2cc(NS(=O)(=O)c3ccc(Cl)cc3Cl)ccc2s1 [compound 412] | 3 |
| Cc1nc2cc(NS(=O)(=O)c3cc(Cl)ccc3Cl)ccc2s1 [compound 580] | 1.4 |
